This note sets out measurements from paper PMC7044277 (Nature Communications, 2020).

Holding throughout (assay type): cell-based
In experiment [1] the target is T1, 320 non-olfactory GPCRs (Homo sapiens, UniProt P25116).
T1 construct: expressed in transfected cells; host or cells: HTLA cells

In experiment [2] the target is T2, 320 non-olfactory GPCRs (Homo sapiens, UniProt P29274).
T2 construct: expressed in transfected cells; host or cells: HTLA cells

In experiment [3] the target is T3, 320 non-olfactory GPCRs (Homo sapiens, UniProt Q96G91).
T3 construct: expressed in transfected cells; host or cells: HTLA cells
The settings on record: receptor P2RY11; replicate values, Fig_4g.

Experiment [4] concerns the target T4, 320 non-olfactory GPCRs (Homo sapiens, UniProt P41180).
T4 construct: expressed in transfected cells; host or cells: HTLA cells

Each structure is given as a SMILES string. Several values for one entry are separate records, joined by “and”; a condition that tells them apart may be missing. Equal values may be shown once.
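For Fold of Basal in this document: compound tested at 1 µM final concentration.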
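For GPCRome agonism screen response in this document: fold over basal response of each receptor without drug.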

T2 sequence (P29274 whole entry): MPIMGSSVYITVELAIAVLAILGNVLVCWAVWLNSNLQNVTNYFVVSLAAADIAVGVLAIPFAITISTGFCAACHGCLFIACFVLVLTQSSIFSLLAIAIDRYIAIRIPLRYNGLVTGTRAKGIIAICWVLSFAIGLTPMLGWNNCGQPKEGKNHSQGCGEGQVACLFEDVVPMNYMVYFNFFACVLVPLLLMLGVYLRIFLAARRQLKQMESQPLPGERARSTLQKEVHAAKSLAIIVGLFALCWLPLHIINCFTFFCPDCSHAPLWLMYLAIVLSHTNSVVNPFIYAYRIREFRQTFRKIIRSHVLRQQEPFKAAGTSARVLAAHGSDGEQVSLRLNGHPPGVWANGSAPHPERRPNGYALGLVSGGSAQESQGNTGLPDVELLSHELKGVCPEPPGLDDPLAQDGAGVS
T1 sequence (P25116 22-425): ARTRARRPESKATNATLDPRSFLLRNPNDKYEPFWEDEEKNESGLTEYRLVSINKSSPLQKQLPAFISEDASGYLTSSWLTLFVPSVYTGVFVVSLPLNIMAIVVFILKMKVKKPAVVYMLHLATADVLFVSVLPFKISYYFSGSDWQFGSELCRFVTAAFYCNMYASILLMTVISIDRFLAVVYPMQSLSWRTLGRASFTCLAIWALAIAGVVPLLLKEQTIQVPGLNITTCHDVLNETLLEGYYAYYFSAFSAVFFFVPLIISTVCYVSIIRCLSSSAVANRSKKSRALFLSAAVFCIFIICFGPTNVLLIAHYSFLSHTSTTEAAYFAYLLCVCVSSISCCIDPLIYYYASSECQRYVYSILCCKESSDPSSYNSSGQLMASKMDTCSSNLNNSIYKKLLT
T3 sequence (Q96G91 whole entry): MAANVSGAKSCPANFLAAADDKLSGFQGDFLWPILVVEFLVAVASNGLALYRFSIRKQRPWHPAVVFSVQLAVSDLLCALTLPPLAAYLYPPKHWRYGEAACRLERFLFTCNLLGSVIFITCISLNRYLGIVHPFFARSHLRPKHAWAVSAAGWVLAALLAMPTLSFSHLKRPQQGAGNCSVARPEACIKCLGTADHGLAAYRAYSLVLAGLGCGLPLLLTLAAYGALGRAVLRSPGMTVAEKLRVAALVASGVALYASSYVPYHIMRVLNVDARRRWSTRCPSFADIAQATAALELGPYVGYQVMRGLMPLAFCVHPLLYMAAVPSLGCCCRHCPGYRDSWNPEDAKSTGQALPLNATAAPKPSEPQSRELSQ
T4 sequence (P41180 20-1078): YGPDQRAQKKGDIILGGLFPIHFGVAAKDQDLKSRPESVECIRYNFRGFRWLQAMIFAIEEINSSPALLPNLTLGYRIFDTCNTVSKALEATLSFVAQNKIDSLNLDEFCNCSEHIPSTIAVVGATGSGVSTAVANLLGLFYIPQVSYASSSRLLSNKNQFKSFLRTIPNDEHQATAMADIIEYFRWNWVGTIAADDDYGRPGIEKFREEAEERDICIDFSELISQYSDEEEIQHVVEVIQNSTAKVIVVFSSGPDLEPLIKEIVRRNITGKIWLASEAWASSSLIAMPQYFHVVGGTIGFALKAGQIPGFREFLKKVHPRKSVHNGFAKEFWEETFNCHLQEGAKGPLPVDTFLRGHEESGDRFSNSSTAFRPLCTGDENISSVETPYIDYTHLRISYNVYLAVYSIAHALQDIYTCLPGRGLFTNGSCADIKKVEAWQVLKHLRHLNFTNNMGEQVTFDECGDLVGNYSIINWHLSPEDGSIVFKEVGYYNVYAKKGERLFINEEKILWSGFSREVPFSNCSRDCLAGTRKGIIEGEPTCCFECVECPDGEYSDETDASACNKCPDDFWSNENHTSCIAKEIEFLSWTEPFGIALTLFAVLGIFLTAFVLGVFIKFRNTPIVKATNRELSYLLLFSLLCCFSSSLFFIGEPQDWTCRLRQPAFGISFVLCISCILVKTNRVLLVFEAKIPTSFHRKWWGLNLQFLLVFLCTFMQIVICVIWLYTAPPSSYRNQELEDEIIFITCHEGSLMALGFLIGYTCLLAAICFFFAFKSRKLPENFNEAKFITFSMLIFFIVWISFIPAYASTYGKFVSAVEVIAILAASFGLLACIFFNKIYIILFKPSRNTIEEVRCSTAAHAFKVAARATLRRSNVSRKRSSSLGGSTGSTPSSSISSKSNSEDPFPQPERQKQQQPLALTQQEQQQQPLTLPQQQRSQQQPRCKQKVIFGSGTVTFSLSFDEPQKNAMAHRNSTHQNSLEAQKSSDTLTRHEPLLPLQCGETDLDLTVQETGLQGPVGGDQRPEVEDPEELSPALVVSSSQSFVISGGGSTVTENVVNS

As for `CCOc1cccc2cc(C(C)NCC3(O)CCCCC3)oc12` (stereo not shown) [O4LE6], the “Fold of Basal” value on 320 non-olfactory GPCRs [1] is 0.906 and 0.8507 and 1.071 and 1.142; at 320 non-olfactory GPCRs [2] it was 0.5279 and 0.6435 and 0.5264 and 0.5735; at 320 non-olfactory GPCRs [4], 0.9783 and 1.253 and 1.231 and 1.397. The “GPCRome agonism screen response” value at 320 non-olfactory GPCRs [3] is 1.047 and 1.146 and 1.063 and 1.471.
